In brackets after ≈: the same amount, converted by molar mass. Like-named read-outs stand apart in the source and are kept apart here.
How the values were obtained:
K. rhizophila = assay: microbe, parasite or virus in culture; assay type: cell-based, Kocuria rhizophila; conditions: WT
M. bovis BCG = assay: microbe, parasite or virus in culture; assay type: cell-based, Mycobacterium bovis
R. jostii = assay: microbe, parasite or virus in culture; assay type: cell-based, Rhodococcus jostii; conditions: strain RHA1, WT
S. aureus = assay: microbe, parasite or virus in culture; assay type: cell-based, Staphylococcus aureus; conditions: strain ATCC 25923, WT
E. coli = assay: microbe, parasite or virus in culture; assay type: cell-based, Escherichia coli; conditions: strain O157:H7, WT
M. smegmatis = assay: microbe, parasite or virus in culture; assay type: cell-based, Mycobacterium smegmatis; conditions: strain mc^2155, WT
M. tuberculosis = assay: microbe, parasite or virus in culture; assay type: cell-based, Mycobacterium tuberculosis; conditions: for MIC90: Mycobacterium tuberculosis
S. lividans = assay: microbe, parasite or virus in culture; assay type: cell-based, Streptomyces lividans; conditions: strain 1326, WT
A. baumannii = assay: microbe, parasite or virus in culture; assay type: cell-based, Acinetobacter baumannii; conditions: strain ATCC 1960, WT
[1] = tested on: representative Gram-positive and Gram-negative bacteria; assay type: cell-based
P. aeruginosa = assay: microbe, parasite or virus in culture; assay type: cell-based, Pseudomonas aeruginosa; conditions: strain PA01 (H103), WT
M. intracellulare = assay: MIC against mycobacterial species; assay type: cell-based
M. microti = assay: microbe, parasite or virus in culture; assay type: cell-based
M. avium = assay: MIC against mycobacterial species; assay type: cell-based, Mycobacterium avium
M. phlei = assay: MIC against mycobacterial species; assay type: cell-based; conditions: M. phlei
[2] = Humans, oral, cited from earlier work
[3] = Dogs, 250 μg/kg oral; cited from earlier work
[4] = ivermectin: extra-label use; selamectin, moxidectin: therapeutic doses; cited from earlier work
M. aurum = assay: MIC against mycobacterial species; assay type: cell-based; conditions: M. aurum
[5] = mice; cited from earlier work
M. gordonae = assay: MIC against mycobacterial species; assay type: cell-based; conditions: M. gordonae 324
[6] = single dose, cited from earlier work
M. chelonae = assay: MIC against mycobacterial species; assay type: cell-based; conditions: M. chelonae
[7] = rats; cited from earlier work

Compound: CO[C@H]1C[C@H](O[C@H]2[C@H](C)O[C@@H](O[C@@H]3/C(C)=C/C[C@@H]4C[C@@H](C[C@]5(C=C[C@H](C)[C@@H](C6CCCCC6)O5)O4)OC(=O)[C@@H]4C=C(C)[C@@H](O)[C@H]5OC/C(=C\C=C\[C@@H]3C)[C@]54O)C[C@@H]2OC)O[C@@H](C)[C@@H]1O [Doramectin]
- In vitro MIC90 (K. rhizophila): >256 µg/mL
- In vitro MIC90 (M. bovis BCG; strain BCG Pasteur, WT): 8 µg/mL
- In vitro MIC90 (R. jostii): >256 µg/mL
- In vitro MIC90 (S. aureus): >256 µg/mL
- In vitro MIC90 (E. coli): >256 µg/mL
- In vitro MIC90 (M. smegmatis): 128 µg/mL
- level of activity (M. tuberculosis; against all Mycobacterium species, MTT): lower levels of activity
- In vitro MIC90 (M. tuberculosis; strain 1254, WT): 8 to 16 µg/mL
- In vitro MIC90 (M. tuberculosis; strain CDC 1551, WT): 4 to 8 µg/mL
- In vitro MIC90 (M. tuberculosis; strain Erdman, WT): 8 µg/mL
- In vitro MIC90 (M. tuberculosis; strain H37Rv, WT): 8 µg/mL
- In vitro MIC90 (S. lividans): >256 µg/mL
- In vitro MIC90 (A. baumannii): >256 µg/mL
- Inhibitory effects [1]: not observed
- In vitro MIC90 (P. aeruginosa): >256 µg/mL

Compound: CO/N=C1\C[C@]2(C[C@@H]3C[C@@H](C/C=C(\C)C[C@@H](C)/C=C/C=C4\CO[C@@H]5[C@H](O)C(C)=C[C@@H](C(=O)O3)[C@]45O)O2)O[C@H](/C(C)=C/C(C)C)[C@H]1C [Moxidectin]
- MIC90 (K. rhizophila; Kocuria rhizophila, read-out: In vitro MIC90): > 256 µg/mL
- MIC (M. intracellulare; Mycobacterium intracellulare, M. intracellulare D673): > 256 µg/mL
- MIC (M. intracellulare; Mycobacterium intracellulare, M. intracellulare FM): > 256 µg/mL
- MIC (M. intracellulare; Mycobacterium intracellulare, M. intracellulare 1403 ATCC35761, read-out: MIC): 16 µg/mL (≈ 25 µM)
- MIC (M. intracellulare; Mycobacterium intracellulare, M. intracellulare 1403 Trudeau, read-out: MIC): 32 µg/mL (≈ 50 µM)
- MIC (M. microti; M. microti 1601, read-out: MIC): 4 µg/mL (≈ 6.25 µM)
- MIC (M. microti; M. microti 1608, read-out: MIC): 4 µg/mL (≈ 6.25 µM)
- MIC (M. microti; M. microti Ov254, read-out: MIC): 4 µg/mL (≈ 6.25 µM)
- MIC (M. avium; Mycobacterium avium): > 256 µg/mL
- MIC (M. avium; Mycobacterium avium, ATCC25291, M. avium ATCC 25291, read-out: MIC): > 128 µg/mL
- MIC (M. avium; Mycobacterium avium, M. avium 715): > 256 µg/mL
- MIC (M. phlei; Mycolicibacterium phlei, read-out: MIC): 8 µg/mL (≈ 12.5 µM)
- MIC90 (M. bovis BCG; Mycobacterium tuberculosis variant bovis BCG, BCG, read-out: In vitro MIC90): 4 µg/mL (≈ 6.25 µM)
- MIC90 (R. jostii; Rhodococcus jostii, read-out: In vitro MIC90): > 256 µg/mL
- AUC ([2]; 3 mg fast): 1442 ng·h/mL
- Cmax ([2]; 3 mg fast): 22.4 ng/mL
- T½ ([2]; 3 mg fast): 33.8 days
- AUC ([2]; 9 mg fast): 3024 ng·h/mL
- Cmax ([2]; 9 mg fast): 57.9 ng/mL
- T½ ([2]; 9 mg fast): 34.6 days
- AUC ([2]; 18 mg fast): 5856 ng·h/mL
- Cmax ([2]; 18 mg fast): 141 ng/mL
- T½ ([2]; 18 mg fast): 22 days
- AUC ([2]; 36 mg fast): 10824 ng·h/mL
- Cmax ([2]; 36 mg fast): 289 ng/mL
- T½ ([2]; 36 mg fast): 20.2 days
- AUC ([2]; 36 mg fed): 14976 ng·h/mL
- Cmax ([2]; 36 mg fed): 296 ng/mL
- T½ ([2]; 36 mg fed): 25.7 days
- AUC [3]: 11800 ng·h/mL
- Cmax [3]: 234 ng/mL
- T½ [3]: 25.9 days
- MIC90 (S. aureus; Staphylococcus aureus, ATCC25923, read-out: In vitro MIC90): > 256 µg/mL
- MIC90 (E. coli; Escherichia coli, read-out: In vitro MIC90): > 256 µg/mL
- toxicity in dogs lacking MDR1 P-glycoprotein / homozygous MDR1 mutation [4]: without any signs of toxicosis
- MIC90 (M. smegmatis; Mycolicibacterium smegmatis, read-out: In vitro MIC90): 4 µg/mL (≈ 6.25 µM)
- MIC90 (M. tuberculosis; ERDMAN, read-out: In vitro MIC90, strain Erdman, WT): 2 to 4 µg/mL (≈ 3.13 to 6.25 µM)
- MIC90 (M. tuberculosis; read-out: In vitro MIC90, strain 1254, WT): 4 µg/mL (≈ 6.25 µM)
- MIC90 (M. tuberculosis; read-out: In vitro MIC90, strain BC-DS1 (drug-susceptible)): 4 µg/mL (≈ 6.25 µM)
- MIC90 (M. tuberculosis; read-out: In vitro MIC90, strain BC-DS3 (drug-susceptible)): 2 µg/mL (≈ 3.13 µM)
- MIC90 (M. tuberculosis; read-out: In vitro MIC90, strain BC-DS4 (drug-susceptible)): 2 µg/mL (≈ 3.13 µM)
- MIC90 (M. tuberculosis; read-out: In vitro MIC90, strain BC-DS5 (drug-susceptible)): 2 to 4 µg/mL (≈ 3.13 to 6.25 µM)
- MIC90 (M. tuberculosis; read-out: In vitro MIC90, strain CDC 1551, WT): 2 µg/mL (≈ 3.13 µM)
- MIC90 (S. lividans; Streptomyces lividans, read-out: In vitro MIC90): > 256 µg/mL
- MIC90 (A. baumannii; Acinetobacter baumannii, ATCC1960, read-out: In vitro MIC90): > 256 µg/mL
- MIC (M. aurum; Mycolicibacterium aurum, read-out: MIC): 1 µg/mL (≈ 1.56 µM)
- LD50 [5]: 84 mg/kg body weight
- MIC (M. gordonae; Mycobacterium gordonae, read-out: MIC): 4 µg/mL (≈ 6.25 µM)
- MIC90 (P. aeruginosa; Pseudomonas aeruginosa, read-out: In vitro MIC90): > 256 µg/mL
- dose reported safe in humans ([6]; clinical studies): up to 36 mg
- dose reported not safe in humans [6]: 54 mg
- MIC (M. chelonae; Mycobacteroides chelonae, read-out: MIC): 4 µg/mL (≈ 6.25 µM)
- LD50 [7]: 106 mg/kg body weight

Compound: Abamectin
- MIC (M. intracellulare; M. intracellulare 1403 ATCC35761): 16 µg/mL
- MIC (M. intracellulare; M. intracellulare 1403 Trudeau): 16 µg/mL
- MIC (M. intracellulare; M. intracellulare D673): 32 µg/mL
- MIC (M. intracellulare; M. intracellulare FM): 16 µg/mL
- MIC (M. microti; M. microti 1601): 16 µg/mL
- MIC (M. microti; M. microti 1608): 64 µg/mL
- MIC (M. microti; M. microti Ov254): 256 µg/mL
- MIC (M. avium; M. avium 702): >256 µg/mL
- MIC (M. avium; M. avium 715): >256 µg/mL
- MIC (M. phlei): >256 µg/mL
- MIC (M. aurum): 8 µg/mL
- MIC (M. gordonae): 16 µg/mL
- MIC (M. chelonae): 16 µg/mL

Reference: patent US9308215B2, “Avermectins and milbemycins as anti-mycobacterial agents” (priority 2013, dated 2016)
